Measurements taken from patent US6342504B1, “Aromatic heterocyclic derivatives as enzyme inhibitors” (priority 1994, dated 2002).
Structures can show the parent of a compound that is named as a salt. Marks after values point to notes of the source that are not given here.

Columns and labels:
[1] = test system: pooled normal human plasma; assay: Ex vivo anticoagulant effect: activated partial thromboplastin time (APTT) in plasma; type: biochemical
Method: FIG. 6 depicts the anticoagulant effect of [3-[(benzylsulfonyl)amino]-2-oxo-1,2-dihydropyridyl] acetyl-L-arginal measured in citrated human plasma, closed circles (l), using the activated partial thromboplastin time (APTT) assay. […] The data is the mean of two independent determinations.
The ex vivo anticoagulant effect of [3-[(benzylsulfonyl)amino]-2-oxo-1,2-dihydropyridyl]acetyl-L-argininal was determined by measuring the prolongation of the activated partial thromboplastin time (APTT) over a broad concentration range of the added inhibitor, using pooled normal human plasma. Fresh frozen citrated pooled normal human plasma was obtained from George King Biomedical, Overland Park, Kans. Measurements of APTT were made using the Coag-A-Mate RA4 automated coagulometer (General Diagnostics, Organon Technica, Oklahoma City, Okla.) using the Platelin® L reagent (Organon Technica, Durham, N.C.) as the initiator of clotting according to the manufacturer's instructions. The assay was conducted by making a series of dilutions of the test compounds in rapidly thawed plasma followed by adding 200 microliters to the wells of the assay carousel.

[2] = biological target: human plasmin (Homo sapiens, UniProt P00747); assay: biochemical; details: 30 minute incubation; read-out: IC50 Plasmin (Table 2)
human plasmin, sequence (P00747 97-580): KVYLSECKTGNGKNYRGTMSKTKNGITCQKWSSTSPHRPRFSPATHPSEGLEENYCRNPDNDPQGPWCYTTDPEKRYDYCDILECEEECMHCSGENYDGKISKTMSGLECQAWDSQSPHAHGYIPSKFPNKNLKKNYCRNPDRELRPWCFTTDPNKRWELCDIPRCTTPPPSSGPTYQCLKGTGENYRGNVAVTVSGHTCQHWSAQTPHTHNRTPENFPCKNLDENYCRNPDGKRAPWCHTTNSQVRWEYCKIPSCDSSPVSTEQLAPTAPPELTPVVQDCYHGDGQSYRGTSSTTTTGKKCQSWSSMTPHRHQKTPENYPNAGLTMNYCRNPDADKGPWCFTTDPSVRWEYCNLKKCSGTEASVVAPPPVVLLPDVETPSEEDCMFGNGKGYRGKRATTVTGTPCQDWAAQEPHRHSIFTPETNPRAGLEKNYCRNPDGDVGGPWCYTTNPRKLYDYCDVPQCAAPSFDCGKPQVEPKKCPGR
human plasmin, sequence (P00747 581-810): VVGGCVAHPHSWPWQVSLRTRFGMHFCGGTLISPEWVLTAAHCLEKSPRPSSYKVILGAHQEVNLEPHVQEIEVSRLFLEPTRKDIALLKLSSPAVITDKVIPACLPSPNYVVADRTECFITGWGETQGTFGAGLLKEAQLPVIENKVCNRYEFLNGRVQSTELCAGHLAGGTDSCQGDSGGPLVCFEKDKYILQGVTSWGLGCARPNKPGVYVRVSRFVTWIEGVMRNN
Method: (§1) The ability of compounds of the present invention to act as a selective inhibitor of thrombin catalytic activity was assessed by determining the concentration of compound which inhibited the activity of this enzyme by 50%, (IC50), and comparing this value to that determined for all or some of the following related serine proteases: recombinant tissue plasminogen activator (rt-PA), plasmin, activated protein C, chymotrypsin, factor Xa and trypsin.
(§2) The buffer used for all assays was HBSA (10 mM HEPES, pH 7.5, 150 mM sodium chloride, 0.1% bovine serum albumin).
(§3) The assay for IC50 determinations was conducted by combining in appropriate wells of a Corning microtiter plate, 50 microliters of HBSA, 50 microliters of the test compound at a specified concentration (covering a broad concentration range) diluted in HBSA (or HBSA alone for VO (uninhibited velocity) measurement), and 50 microliters of the enzyme diluted in HBSA. Following a 30 minute incubation at ambient temperature, 50 microliters of the substrate at the concentrations specified below were added to the wells, yielding a final total volume of 200 microliters. The initial velocity of chromogenic substrate hydrolysis was measured by the change in absorbance at 405 nm using a Thermo Max® Kinetic Microplate Reader over a 5 minute period in which less than 5% of the added substrate was utilized. The concentration of added inhibitor which caused a 50% decrease in the initial rate of hydrolysis was defined as the IC50 value.
Plasmin catalytic activity was determined using the chromogenic substrate, S-2366 [L-pyroglutomyl-L-prolyl-L-arginine-p-nitroaniline hydrochloride], which was obtained from Pharmacia-Upjohn. The substrate was made up in deionized water followed by dilution in HBSA prior to the assay in which the final concentration was 300 micromolar (about 2.5-times Km). Purified human plasmin was obtained from Enzyme Research Laboratories, Inc. The enzyme was diluted into HBSA prior to assay in which the final concentration was […].

[3] = biological target: T1, human alpha thrombin (Homo sapiens, UniProt P00734); assay: Thrombin (fIIa) IC50 assay, chromogenic substrate Pefachrome t-PA; type: biochemical
T1 construct: Purified human alpha-thrombin; purchased Enzyme Research Laboratories, Inc
Method: as §1, §2, §3
Enzyme activity was determined using the chromogenic substrate, Pefachrome t-PA (CH3SO2-D-hexahydrotyrosine-glycyl-L-Arginine-p-nitroaniline, obtained from Pentapharm Ltd.). The substrate was reconstituted in deionized water prior to use. Purified human a-thrombin was obtained from Enzyme Research Laboratories, Inc. The buffer used for all assays was HBSA (10 mM HEPES, pH 7.5, 150 mM sodium chloride, 0.1% bovine serum albumin).
IC50 determinations were conducted where HBSA ([…]), a-thrombin (50 μl) and inhibitor (50 μl) (covering a broad concentration range), were combined in appropriate wells and incubated for 30 minutes at room temperature prior to the addition of substrate Pefachrome-t-PA (50 μl). The initial velocity of Pefachrome t-PA hydrolysis was measured by the change in absorbance at 405 nm using a Thermo Max® Kinetic Microplate Reader over a 5 minute period in which less than 5% of the added substrate was utilized. The concentration of added inhibitor which caused a 50% decrease in the initial rate of hydrolysis was defined as the IC50 value.

[4] = test system: FeCl3-induced occlusive thrombus in rat carotid artery; assay: Rat model of FeCl3-induced platelet-dependent arterial thrombosis; type: in vivo; details: for Incidence of Occlusion: n 6
From the text: Rat Model of FeCl3-induced Platelet-dependent Arterial Thrombosis
Kurz, K. D., Main, B. W., and Sandusky, G. E., Thromb. […] In this model a platelet-rich, occlusive thrombus is formed in a segment of the rat carotid artery treated locally with a fresh solution of FeCl3 absorbed to a piece of filter paper. The FeCl3 is thought to diffuse into the treated segment of artery and cause de-endothelialization of the affected vessel surface. […] The effect of a test compound on the incidence of occlusive thrombus formation following the application of the FeCl3 is monitored by ultrasonic flowtometry and is used as the primary end point. The use of flowtometry to measure carotid artery blood flow, is a modification of the original procedure in which thermal detection of clot formation was employed. Kurz, K. D., Main, B. W., and Sandusky, G. E., Thromb.
Male Harlan Sprague Dawley rats (420-450 g) were acclimated at least 72 hours prior to use and fasted for 12 hours prior to surgery with free access to water. The animals were prepared, anesthetized with Nembutal followed by the insertion of catheters for blood pressure monitoring, drug and anesthesia delivery. The left carotid artery was isolated by making a midline cervical incision followed by blunt dissection and spreading techniques to separate a 2 cm segment of the vessel from the carotid sheath. A silk suture is inserted under the proximal and distal ends of the isolated vessel to provide clearance for the placement of a ultrasonic flow probe (Transonic) around the proximal end of the vessel. The probe is then secured with a stationary arm.
The test compound was administered as a single intravenous bolus at the doses outlined in Table 4 after placement of the flow probe and 5 minutes prior to the thrombogenic stimulus. At t=0, a 3 mm diameter piece of filter paper (Whatman #3) soaked with 10 microliters of a 35% solution of fresh FeCl3 (made up in water) was applied the segment of isolated carotid artery distal to the flow probe. Blood pressure, blood flow, heart rate, and respiration were monitored for 60 minutes.
The incidence of occlusion (defined as the attainment of zero blood flow) was recorded as the primary end point.
This allows a direct comparison of the antithrombotic efficacy of [3-[(benzylsulfonyl)amino]-2-oxo-1,2-dihydropyridyl]acetyl-L-argininal, with other antithrombotic agents which have also been evaluated in this model as described above. Table 5 lists the ED50 values for several well known anticoagulant agents in this model compared to [3-[(benzylsulfonyl)amino]-2-oxo-1,2-dihydropyridyl]acetyl-L-argininal.

With N=C(N)NCCC[C@@H](C=O)NC(=O)Cn1cccc(NS(=O)(=O)Cc2ccccc2)c1=O [Example 10, [3-[(benzylsulfonyl)amino]-2-oxo-1,2-dihydropyridyl]acetyl-L-argininal, trifluoroacetate salt] the “concentration which caused a doubling of the control clotting time (APTT)” value ([1]; citrated human plasma, control clotting time 29 seconds, mean of two independent determinations) was 7.7 µM, the “prolongation of the APTT” value ([1]; pooled normal human plasma, broad concentration range) was “prolonged the APTT in a dose dependent manner” and the IC50 [2] was over 2500 nM. For the same molecule, the IC50 [3] was 0.66 nM, the “Incidence of Occlusion” value ([4]; 0.3 mg/kg single intravenous bolus 5 minutes prior to FeCl3, monitored 60 minutes) was 6/6 and the “Incidence of Occlusion” value ([4]; 1.0 mg/kg single intravenous bolus 5 minutes prior to FeCl3) was 3/6. The “Incidence of Occlusion” value ([4]; 3.0 mg/kg single intravenous bolus 5 minutes prior to FeCl3, p ≦ 0.05 from saline control) was 1/6*, the “Incidence of Occlusion” value ([4]; 5.0 mg/kg single intravenous bolus 5 minutes prior to FeCl3, p ≦ 0.05 from saline control) was 0/6* and the ED50 ([4]; Rattus norvegicus, read-out: ED50 for thrombus prevention (dose that prevents complete thrombotic occlusion in 50% of animals)) was 1 mg/kg.
